Test results as given in the supplement of paper PMC10307832.

Key:
Assay in all cases: relative viability (nuclei count vs DMSO), 5 days (fraction); higher = more cells survive
[1] = compound: CN(C)C[C@@H]1CCn2cc(c3ccccc32)C2=C(C(=O)NC2=O)c2cn(c3ccccc23)CCO1 [Ruboxistaurin] + Cc1nc(NC(=O)N2CCC[C@H]2C(N)=O)sc1-c1ccnc(C(C)(C)C(F)(F)F)c1 [Alpelisib] (partner 2 µM)
In short: (§1)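 Relative viability was taken as the ratio of nuclei in treated wells to nuclei in vehicle wells. Lung cancer cell lines in 1536-well plates received compounds by pin tool one day after seeding, either one drug alone or a fixed anchor-drug dose plus five library-drug doses (not always all listed) in √10 steps. Nuclei were counted on 4× images after 5 days of treatment, and values are medians of duplicate plates.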

[2] = compound: CN(C)C[C@@H]1CCn2cc(c3ccccc32)C2=C(C(=O)NC2=O)c2cn(c3ccccc23)CCO1 [Ruboxistaurin] + CS(=O)(=O)N1CCN(Cc2cc3nc(-c4cccc5[nH]ncc45)nc(N4CCOCC4)c3s2)CC1 [Pictilisib] (partner 1 µM)
In short: as §1

[3] = compound: CN(C)C[C@@H]1CCn2cc(c3ccccc32)C2=C(C(=O)NC2=O)c2cn(c3ccccc23)CCO1 [Ruboxistaurin] + CS(=O)(=O)CCNCc1ccc(-c2ccc3ncnc(Nc4ccc(OCc5cccc(F)c5)c(Cl)c4)c3c2)o1 [Lapatinib] (partner 2 µM)
In short: as §1

[4] = compound: CN(C)C[C@@H]1CCn2cc(c3ccccc32)C2=C(C(=O)NC2=O)c2cn(c3ccccc23)CCO1 [Ruboxistaurin] + N=C(N)NC(=N)NCCc1ccccc1 [Phenformin] (partner 250 µM)
In short: as §1

[5] = compound: CN(C)C[C@@H]1CCn2cc(c3ccccc32)C2=C(C(=O)NC2=O)c2cn(c3ccccc23)CCO1 [Ruboxistaurin] + Cc1nc(Nc2ncc(C(=O)Nc3c(C)cccc3Cl)s2)cc(N2CCN(CCO)CC2)n1 [Dasatinib] (partner 0.075 µM)
In short: as §1

| Cell Line | relative viability ([1]; first compound 0.08 µM) | relative viability ([1]; first compound 0.8 µM) | relative viability ([1]; first compound 2.53 µM) | relative viability ([1]; first compound 8 µM) | relative viability ([2]; first compound 0.08 µM) | relative viability ([2]; first compound 0.8 µM) | relative viability ([2]; first compound 2.53 µM) | relative viability ([2]; first compound 8 µM) | relative viability ([3]; first compound 0.08 µM) | relative viability ([3]; first compound 0.8 µM) | relative viability ([3]; first compound 2.53 µM) | relative viability ([3]; first compound 8 µM) | relative viability ([4]; first compound 0.08 µM) | relative viability ([4]; first compound 0.8 µM) | relative viability ([4]; first compound 2.53 µM) | relative viability ([4]; first compound 8 µM) | relative viability ([5]; first compound 0.08 µM) | relative viability ([5]; first compound 0.8 µM) | relative viability ([5]; first compound 2.53 µM) | relative viability ([5]; first compound 8 µM) |
| --- | --- | --- | --- | --- | --- | --- | --- | --- | --- | --- | --- | --- | --- | --- | --- | --- | --- | --- | --- | --- |
| NCI-H2087 | 1.07 | 0.971 | 1.24 | 0.952 | 0.908 | 0.68 | 0.837 | 0.57 | 0.952 | 1.02 | 1.25 | 1.1 | 0.494 | 0.409 | 0.481 | 0.472 | 0.889 | 0.783 | 0.835 | 0.701 |
| NCI-H2126 | 0.729 | 0.713 | 0.76 | 0.697 | 0.533 | 0.447 | 0.541 | 0.463 | 0.751 | 0.703 | 0.774 | 0.73 | 0.573 | 0.52 | 0.541 | 0.52 | 0.697 | 0.557 | 0.611 | 0.539 |
| NCI-H2170 | 0.82 | 0.716 | 0.823 | 0.694 | 0.301 | 0.256 | 0.322 | 0.253 | 0.243 | 0.241 | 0.263 | 0.251 | 0.443 | 0.429 | 0.458 | 0.474 | 0.592 | 0.61 | 0.489 | 0.519 |
| NCI-H2228 | 0.85 | 0.675 | 0.837 | 0.478 | 0.431 | 0.358 | 0.345 | 0.335 | 1.51 | 1.1 | 1.14 | 0.911 | 0.345 | 0.256 | 0.419 | 0.269 | 0.615 | 0.493 | 0.49 | 0.456 |
| NCI-H2347 | 1.09 | 0.951 | 0.967 | 0.863 | 0.739 | 0.772 | 0.714 | 0.519 | 1.02 | 0.829 | 0.934 | 0.979 | 0.557 | 0.382 | 0.488 | 0.367 | 0.683 | 0.272 | 0.283 | 0.229 |
| NCI-H2405 | 0.936 | 0.681 | 0.775 | 0.835 | 0.561 | 0.411 | 0.478 | 0.33 | 1.3 | 1.01 | 1.19 | 1.05 | 0.427 | 0.391 | 0.414 | 0.38 | 0.184 | 0.239 | 0.174 | 0.222 |
| NCI-H3122 | 0.837 | 0.562 | 0.737 | 0.587 | 0.7 | 0.398 | 0.564 | 0.436 | 1.02 | 1.02 | 1 | 1.08 | 0.409 | 0.372 | 0.413 | 0.379 | 0.953 | 0.922 | 0.753 | 0.96 |
| PC-3 [JPC-3] | 1.02 | 0.956 | 1.01 | 0.976 | 0.883 | 0.678 | 0.742 | 0.814 | 0.428 | 0.417 | 0.44 | 0.391 | 0.471 | 0.47 | 0.492 | 0.517 | 1 | 0.97 | 0.967 | 0.944 |
| PC-14 | 1.03 | 0.887 | 0.881 | 1 | 0.788 | 0.63 | 0.689 | 0.402 | 0.353 | 0.311 | 0.302 | 0.294 | 0.675 | 0.568 | 0.536 | 0.556 | 0.269 | 0.221 | 0.281 | 0.0895 |
| RERF-LC-KJ | 0.854 | 0.798 | 0.761 | 0.744 | 0.508 | 0.499 | 0.472 | 0.359 | 0.905 | 0.837 | 0.781 | 0.77 | 0.458 | 0.426 | 0.443 | 0.406 | 0.847 | 0.608 | 0.833 | 0.652 |
| SK-LU-1 | 1.07 | 0.81 | 0.921 | 0.782 | 0.55 | 0.55 | 0.561 | 0.426 | 0.937 | 0.785 | 0.996 | 0.969 | 0.61 | 0.495 | 0.628 | 0.526 | 0.195 | 0.145 | 0.163 | 0.169 |
| SK-MES-1 | 1 | 0.782 | 0.837 | 0.801 | 0.417 | 0.3 | 0.323 | 0.316 | 0.515 | 0.413 | 0.5 | 0.425 | 0.678 | 0.607 | 0.658 | 0.639 | 0.395 | 0.308 | 0.329 | 0.339 |
| SW 1573 | 0.752 | 0.688 | 0.72 | 0.706 | 0.468 | 0.39 | 0.542 | 0.37 | 1.1 | 1.12 | 1.18 | 1.03 | 0.408 | 0.141 | 0.445 | 0.282 | 0.52 | 0.331 | 0.452 | 0.456 |
| UMC-11 | 0.966 | 0.896 | 0.95 | 0.743 | 0.892 | 0.596 | 0.728 | 0.509 | 1.03 | 0.844 | 0.875 | 0.644 | 0.321 | 0.33 | 0.315 | 0.354 | 0.481 | 0.455 | 0.429 | 0.434 |
